Where two headings read alike, the source gives them in different places. No end group written: not given here.
Molecular target: T1, GPR103 Q318^7.39A (Homo sapiens, UniProt Q96P65, Q318A)
T1 construct: we used human full-length QRFPR-encoding plasmids; expressed in transfected cells; host or cells: HEK293 cells (HEK293A in the flow cytometry section), pCAGGS vector
T1 sequence (Q96P65 1-431 Q318A): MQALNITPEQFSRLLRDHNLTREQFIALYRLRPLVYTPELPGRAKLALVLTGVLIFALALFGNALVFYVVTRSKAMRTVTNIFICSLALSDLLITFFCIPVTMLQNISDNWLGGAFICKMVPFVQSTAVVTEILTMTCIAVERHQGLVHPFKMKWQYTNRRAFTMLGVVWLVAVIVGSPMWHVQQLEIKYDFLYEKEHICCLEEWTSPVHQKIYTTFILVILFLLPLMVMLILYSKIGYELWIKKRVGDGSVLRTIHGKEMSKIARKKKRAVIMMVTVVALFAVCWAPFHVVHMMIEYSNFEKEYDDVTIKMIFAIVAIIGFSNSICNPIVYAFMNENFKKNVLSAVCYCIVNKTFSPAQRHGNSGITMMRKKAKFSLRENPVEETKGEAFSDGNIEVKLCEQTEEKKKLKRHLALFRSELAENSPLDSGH
Assay: TGFα shedding assay; Exp. level WT (1:50)
Assay type: cell-based

- Emax (Exp. #1): 14.85 % WT
- Emax (Exp. #2): 10.08 % WT
- Emax (Exp. #3): 10.26 % WT
- Emax (mean, read-out: Emax): 11.7%
- EC50 (n = 3): 0.0851 µM
- Emax (n = 3, read-out: Emax): 11.7 ± 1.3%
Substance: TSGPLGNLAEELNGYSRKKGGFSFRF-NH2 [QRFP26]
